Source: patent US9629894B2, “Magnesium-containing oxytocin formulations and methods of use” (Trigemina, Inc., priority 2015, dated 2017)

Legend:
[1] = system: rat model of facial thermal nociception; experiment: Rat model of facial thermal nociception: cheek withdrawal latency to radiant heat after nasal administration; type: in vivo; settings: for analgesic effect (elevation in latency to withdrawal): 15-300 min
Experimental: The heat from a projector lamp was focused on the pre-shaved cheek of rats and the intensity was varied to obtain a withdrawal response with a latency of between 6.5 and 8.5 seconds. The intensity applied to achieve such latencies was recorded for each animal. Once stable/acceptable baseline values were obtained, the average latencies for each rat were calculated. After baseline cheek withdrawal latencies were determined for all rats, each rat received a single nasal administration of either normal saline, 15% magnesium chloride in water, or 1% magnesium lactate in water according to the method developed by Frey (Thorne, et al. Neuroscience., 127: 481-496 (2004)). Briefly, rats (under urethane anesthesia) were placed in a supine position with a rolled pad (2×2 gauze) inserted under the dorsal neck to extend the head back toward the supporting surface. The upper surface of the neck was kept horizontal throughout the dosing procedure to maintain the drug solution in the nasal cavity and minimize dripping down the nasopharynx. A 6 μL drop of the respective drug solution was delivered off the tip of a small pipette and presented to the nares on the left side of the rat while occluding the opposite nares. One drop was administered every 2 minutes, alternating between each nares (thus amounting to a four minute interval between doses to the same nares). Each nostril received 4 drops, totaling a combined volume of 48 μL (8 drops of 6 μL each). Drug solutions were coded in order to keep the experimenter blinded as to the substances delivered. Left cheek withdrawal latencies in response to radiant heat stimulation were then measured over the next 3 hours. Withdrawal latencies were measured prior to nasal administration and at 1, 2, and 3 hours post-treatment.
One of 4 concentrations of dibasic magnesium citrate (1:1 Mg/citrate) was applied to rats and the effects of these applications on responses to noxious thermal stimulation of the face were assessed as described above. Each rat received a single nasal administration of 3, 6, 10, or 12% magnesium citrate in water (6 rats/group) according to the method described above. Left cheek withdrawal latencies in response to radiant heat stimulation were then measured over the following 300 minutes. Withdrawal latencies were measured prior to nasal administration and at 15, 30, 45, 60, 120, 180, 240, and 300 min post-treatment.
One of 3 doses of oxytocin in buffered saline was applied to rats and the effects of these applications on responses to noxious thermal stimulation of the face were assessed as described above. Each rat received a single nasal administration of 1, 4, or 8 μg oxytocin in aqueous solution (6 rats/group) according to the method described above. Left cheek withdrawal latencies in response to radiant heat stimulation were then measured over the following 300 minutes. Withdrawal latencies were measured prior to nasal administration and at 15, 30, 45, 60, 120, 180, 240, and 300 min post-treatment.
Aqueous solutions containing a combination of magnesium citrate at one of 3 concentrations with oxytocin at one of 3 doses were applied nasally in rats and changes in withdrawal response latency were measured as above. Each rat received a single nasal administration of 1, 4, or 8 μg of oxytocin in aqueous solution containing 3, 6, or 12% magnesium citrate according to the method described above. Left cheek withdrawal latencies in response to radiant heat stimulation were then measured over the following 300 minutes. Withdrawal latencies were measured prior to nasal administration and at 15, 30, 45, 60, 120, 180, 240, and 300 min post-treatment.
Difference scores were generated for each time point after dosing by comparing the respective withdrawal response latency to pre-dosing (baseline) values.

[2] = system: head, neck and shoulder pain; experiment: Patient with chronic tension-type headache with head, neck and shoulder pain, oxytocin nasal sprays; type: in vivo, human
Source text: A patient with chronic tension-type headache reported having intense pain in their head, neck and shoulders. The patient took 4 sprays of 7.5 IU/spray oxytocin for a dose of 30 units, at which point their headache pain was gone, but the neck and shoulder pain remained. […] Thus, a higher dose was necessary to affect neck and shoulder pain than was necessary to inhibit head pain in the same patient.

[3] = system: rat paw inflammation model; experiment: Rat paw inflammation model (complete Freund's adjuvant in forepaw), force withdrawal threshold to mechanical stimulation; type: in vivo; settings: nasal, FIG. 8
Experimental: The analgesic effect of nasally administered oxytocin on cervical nerve-associated inflammatory pain was assessed in a rat paw inflammation model (Martin et al., Pain 1999, 82:199-205). Oxytocin was nasally administered at one of three doses (193, 385 or 768 micrograms in 48 microliters) and force withdrawal thresholds in grams were determined following mechanical stimulation of the inflamed area (forepaw), at regular intervals over the next three hours, and compared against those of vehicle (phosphate buffered saline) treated rats. Injection of complete Freund's adjuvant into the left forepaw of rats produced a robust inflammation of that paw as well as a substantial decrease in the force necessary to elicit a withdrawal response (mechanical allodynia).

[4] = 4 sprays of 7.5 IU/spray oxytocin, dose of 30 units

CC[C@H](C)[C@@H]1NC(=O)[C@H](Cc2ccc(O)cc2)NC(=O)[C@@H](N)CSSC[C@@H](C(=O)N2CCC[C@H]2C(=O)N[C@@H](CC(C)C)C(=O)NCC(N)=O)NC(=O)[C@H](CC(N)=O)NC(=O)[C@H](CCC(N)=O)NC1=O [oxytocin, Cys-Tyr-Ile-Gln-Asn-Cys-Pro-Leu-Gly]
withdrawal latency ([1]; 1 μg oxytocin, nasal): no increase
analgesic effect (elevation in latency to withdrawal) ([1]; 1, 4 or 8 μg oxytocin in aqueous solution, nasal, FIG. 3): clear dose-dependent analgesic effect
latency to withdrawal in response to noxious cheek heating ([1]; 4 and 8 μg oxytocin, nasal): robust increase in latency to withdrawal
headache pain [2, 4]: gone
neck and shoulder pain [2, 4]: remained
neck and shoulder pain ([2]; additional 8-10 sprays, or a total of 60-75 IU): receded and ceased
reversal of the mechanical allodynia resulting from inflammation ([3]; higher 2 doses, 385 or 768 micrograms in 48 microliters): statistically significant partial reversal
increasing pain thresholds (force withdrawal threshold) ([3]; lowest dose, 193 micrograms in 48 microliters): ineffective

[Cl-].[Cl-].[Mg+2] [magnesium chloride]
analgesia at 2 and 3 hours after dosing ([1]; 15% magnesium chloride in water, nasal, 2 and 3 hours): analgesia continuing
analgesic effect compared to nasal saline treated rats ([1]; 15% magnesium chloride in water, nasal, 1 hour): strong analgesic effect

CC(O)C(=O)[O-].CC(O)C(=O)[O-].[Mg+2] (centres unmarked) [magnesium lactate]
analgesic effect (withdrawal latency) ([1]; 1% magnesium lactate in water, nasal, rats): mild analgesic effect
latencies at the 2 and 3 hour time points ([1]; 1% magnesium lactate in water, nasal, rats, 2 and 3 hours): still substantially elevated
raising response latencies (withdrawal latency to noxious heat) ([1]; 1% magnesium lactate in water, single nasal administration 48 μL, rats): approximately 1.5 s

magnesium citrate
analgesic effect (elevation in latency to withdrawal) ([1]; 3, 6, 10 or 12% magnesium citrate in water, nasal, FIG. 2): clear dose-dependent analgesic effect
